Experiments:
PI5P4Kβ = biological target: T1, PI5P4Kβ (Homo sapiens, UniProt P78356); assay: ADP-Glo kinase assay PI5P4Kβ; type: biochemical; conditions: single concentration of 100 μM
T1 sequence (P78356 1-416): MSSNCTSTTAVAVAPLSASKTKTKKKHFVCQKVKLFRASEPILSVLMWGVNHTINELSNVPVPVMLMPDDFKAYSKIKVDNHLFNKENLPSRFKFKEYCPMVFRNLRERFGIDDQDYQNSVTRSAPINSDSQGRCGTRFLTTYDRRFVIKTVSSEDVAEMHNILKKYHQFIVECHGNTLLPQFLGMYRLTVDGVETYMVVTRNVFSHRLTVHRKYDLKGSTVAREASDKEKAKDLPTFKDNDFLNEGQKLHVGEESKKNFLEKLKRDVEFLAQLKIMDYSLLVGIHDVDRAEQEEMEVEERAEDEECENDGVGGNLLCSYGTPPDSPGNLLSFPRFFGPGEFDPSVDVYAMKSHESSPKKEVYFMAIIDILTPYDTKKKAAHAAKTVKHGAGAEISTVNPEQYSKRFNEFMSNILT
Method: Assays to determine kinase activity of PI5P4Ks in the presence of inhibitors using an ADP-Glo assay (Promega) were performed as described previously.[28] […] Cultures were induced with 0.4 mM IPTG overnight and probe-sonicated in the presence of protease inhibitors. […] The cleaved protein was further purified by size-exclusion chromatography (ÄKTA Pure, Cytiva). […] The protein purity was confirmed by sodium dodecyl sulfate–polyacrylamide gel electrophoresis, and the concentration was determined by colorimetric assay (Bio-Rad).
Statistical analysis was performed using nonparametric testing in Prism 8 (GraphPad). Activity pIC50 values and in vivo binding pEC50 values were estimated using a 4-parameter fit (Dotmatics).

PRAK = PRAK (Homo sapiens, UniProt Q8IW41); assay: Premier Screen kinase panel (MRC PPU); type: biochemical; conditions: PRAK (Entrez MAPKAPK5), read-out: Residual activity (%)
Method: (§1) room temperature with shaking for 30 minutes. The kinase concentration in the eluates was measured by qPCR.
(§2) using ADP-GloTM assay at the MRC PPU International Centre for Kinase Profiling, University of Dundee.
(§3) Conducted by MRC PPU International Centre
(§4) Conducted by MRC PPU International Centre for […]

JNK3 = JNK3 (Homo sapiens, UniProt P53779); assay: Premier Screen kinase panel (MRC PPU); type: biochemical; conditions: JNK3 (Entrez MAPK10), read-out: Residual activity (%)
Method: as §1, §2, §3, §4

PIM2 = PIM2 (Homo sapiens, UniProt Q9P1W9); assay: Premier Screen kinase panel (MRC PPU); type: biochemical; conditions: PIM2 (Entrez PIM2), read-out: Residual activity (%)
Method: as §1, §2, §3, §4

[1] = Mouse microsomal stability; type: in vitro ADME; conditions: mouse liver microsomes; read-out: MLM t1/2
Method: ADMET experimental methods […]
Mouse Microsomal stability: analysis was performed by Cyprotex Discovery. Briefly, test compounds in DMSO were incubated at a concentration of 1 µM (0.25% DMSO final) with mouse hepatic microsomes (0.5 mg protein/mL) in the presence of NADPH (1 mM) at 37 °C. Aliquots were taken at time intervals (0, 5, 15, 30 and 45 min) and stopped by transferring into acetonitrile, then analysed using generic LC-MS/MS conditions for compound remaining, allowing the determination of the half-life for the compound.

PIK3CA = biological target: T2, PIK3CA (Homo sapiens, UniProt P42336); assay: KINOMEscan lipid kinase panel (DiscoverX); type: binding; set-up: dose or concentration left out as unconfirmed
T2 construct: purchased DiscoverX (Eurofins Discovery)
Method: (§5) generated using KINOMEscan™ technologya at DiscoverX. […]
(§6) a Data were generated at Eurofins Discovery using DiscoverX KINOMEscanTM technology. Streptavidin-coated magnetic beads were treated with biotinylated small molecule ligands for 30 minutes at room temperature to generate affinity resins for kinase assays. The liganded beads were blocked with excess biotin and washed with blocking buffer (SeaBlock (Pierce), 1% BSA, 0.05% Tween 20, 1 mM DTT) to remove unbound ligand and to reduce non-specific binding. Binding reactions were assembled by combining kinases, liganded affinity beads, and test compounds in 1x binding buffer (20% SeaBlock, 0.17x PBS, 0.05% Tween 20, 6 mM DTT). Test […]
(§7) The compounds were then diluted directly into the assays such that the final concentration of DMSO was 0.9%. All reactions performed in polypropylene 384-well plate. Each was a final volume of 0.02 ml. The assay plates were incubated at room temperature with shaking for […]
(§8) room temperature with shaking for 30 minutes. The kinase concentration in the eluates was measured by qPCR. […]

PIK3CA(H1047Y) = biological target: T3, PIK3CA(H1047Y) (Homo sapiens, UniProt P42336, H1047Y); assay: KINOMEscan lipid kinase panel (DiscoverX); type: binding; set-up: dose or concentration left out as unconfirmed
T3 construct: purchased DiscoverX (Eurofins Discovery)
Method: as §5, §6, §7, §8

PIK3CG = biological target: T4, PIK3CG (Homo sapiens, UniProt P48736); assay: KINOMEscan lipid kinase panel (DiscoverX); type: binding; set-up: dose or concentration left out as unconfirmed
T4 construct: purchased DiscoverX (Eurofins Discovery)
Method: as §5, §6, §7, §8

PIP5K1C = biological target: T5, PIP5K1C (Homo sapiens, UniProt O60331); assay: KINOMEscan lipid kinase panel (DiscoverX); type: binding; set-up: dose or concentration left out as unconfirmed
T5 construct: purchased Eurofins Discovery (DiscoverX KINOMEscan)
Method: as §5, §6, §7, §8

PIK3CB = biological target: T6, PIK3CB (Homo sapiens, UniProt P42338); assay: KINOMEscan lipid kinase panel (DiscoverX); type: binding; set-up: dose or concentration left out as unconfirmed
T6 construct: purchased DiscoverX (Eurofins Discovery)
Method: as §5, §6, §7, §8

PIK3CA(E542K) = biological target: T7, PIK3CA(E542K) (Homo sapiens, UniProt P42336, E542K); assay: KINOMEscan lipid kinase panel (DiscoverX); type: binding; set-up: dose or concentration left out as unconfirmed
T7 construct: purchased DiscoverX (Eurofins Discovery)
Method: as §5, §6, §7, §8

PIK3CA(E545A) = biological target: T8, PIK3CA(E545A) (Homo sapiens, UniProt P42336, E545A); assay: KINOMEscan lipid kinase panel (DiscoverX); type: binding; set-up: dose or concentration left out as unconfirmed
T8 construct: purchased DiscoverX (Eurofins Discovery)
Method: as §5, §6, §7, §8

PIKFYVE = biological target: T9, PIKFYVE (Homo sapiens, UniProt Q9Y2I7); assay: KINOMEscan lipid kinase panel (DiscoverX); type: binding; set-up: dose or concentration left out as unconfirmed
T9 construct: purchased DiscoverX (Eurofins Discovery)
Method: as §5, §6, §7, §8

PIP5K2C (PI5P4KC) = biological target: T10, PIP5K2C (PI5P4KC) (Homo sapiens, UniProt Q8TBX8); assay: KINOMEscan lipid kinase panel (DiscoverX); type: binding; set-up: dose or concentration left out as unconfirmed
T10 construct: purchased Eurofins Discovery (DiscoverX KINOMEscan)
Method: as §5, §6, §7, §8

PIK4CB = PIK4CB (Homo sapiens, UniProt Q9UBF8); assay: KINOMEscan lipid kinase panel (DiscoverX); type: binding; set-up: dose or concentration left out as unconfirmed
Method: as §5, §6, §7, §8

PIK3C2G = biological target: T11, PIK3C2G (Homo sapiens, UniProt O75747); assay: KINOMEscan lipid kinase panel (DiscoverX); type: binding; set-up: dose or concentration left out as unconfirmed
T11 construct: purchased DiscoverX (Eurofins Discovery)
Method: as §5, §6, §7, §8

PIK3CD = biological target: T12, PIK3CD (Homo sapiens, UniProt O00329); assay: KINOMEscan lipid kinase panel (DiscoverX); type: binding; set-up: dose or concentration left out as unconfirmed
T12 construct: purchased DiscoverX (Eurofins Discovery)
Method: as §5, §6, §7, §8

PIK3CA(C420R) = biological target: T13, PIK3CA(C420R) (Homo sapiens, UniProt P42336, C420R); assay: KINOMEscan lipid kinase panel (DiscoverX); type: binding; set-up: dose or concentration left out as unconfirmed
T13 construct: purchased DiscoverX (Eurofins Discovery)
Method: as §5, §6, §7, §8

VPS34 = biological target: T14, VPS34 (Homo sapiens, UniProt Q8NEB9); assay: KINOMEscan lipid kinase panel (DiscoverX); type: binding; set-up: dose or concentration left out as unconfirmed
T14 construct: purchased Eurofins Discovery (DiscoverX KINOMEscan)
Method: as §5, §6, §7, §8

T6 sequence (P42338 whole entry): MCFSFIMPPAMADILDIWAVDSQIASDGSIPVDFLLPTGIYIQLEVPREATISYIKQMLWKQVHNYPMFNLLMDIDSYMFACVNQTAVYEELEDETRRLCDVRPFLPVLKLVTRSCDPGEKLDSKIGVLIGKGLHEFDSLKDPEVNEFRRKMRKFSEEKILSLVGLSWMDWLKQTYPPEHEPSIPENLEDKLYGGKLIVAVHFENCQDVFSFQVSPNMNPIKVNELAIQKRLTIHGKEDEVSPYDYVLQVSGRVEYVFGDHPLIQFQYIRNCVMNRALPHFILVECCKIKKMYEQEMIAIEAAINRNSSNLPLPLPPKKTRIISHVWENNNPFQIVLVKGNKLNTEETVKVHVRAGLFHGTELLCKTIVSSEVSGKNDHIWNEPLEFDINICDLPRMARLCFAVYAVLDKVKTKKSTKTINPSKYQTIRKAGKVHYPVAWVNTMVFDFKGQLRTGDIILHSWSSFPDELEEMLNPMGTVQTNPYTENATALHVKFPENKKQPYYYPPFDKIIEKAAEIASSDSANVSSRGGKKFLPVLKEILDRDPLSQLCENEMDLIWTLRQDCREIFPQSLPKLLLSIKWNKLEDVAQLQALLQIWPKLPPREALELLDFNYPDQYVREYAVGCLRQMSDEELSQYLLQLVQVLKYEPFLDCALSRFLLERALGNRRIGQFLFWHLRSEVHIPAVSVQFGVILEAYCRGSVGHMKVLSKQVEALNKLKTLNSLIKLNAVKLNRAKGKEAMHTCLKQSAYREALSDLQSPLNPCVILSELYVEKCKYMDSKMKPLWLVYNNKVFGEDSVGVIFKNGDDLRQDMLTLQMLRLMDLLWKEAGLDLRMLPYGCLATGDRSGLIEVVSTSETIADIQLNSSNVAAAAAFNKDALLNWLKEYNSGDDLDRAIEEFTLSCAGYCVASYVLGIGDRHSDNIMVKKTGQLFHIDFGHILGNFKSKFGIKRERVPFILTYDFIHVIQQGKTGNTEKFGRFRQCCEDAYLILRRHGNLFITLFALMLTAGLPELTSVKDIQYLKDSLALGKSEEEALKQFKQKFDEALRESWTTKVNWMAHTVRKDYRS
Chain of PIK4CB (Q9UBF8 whole entry): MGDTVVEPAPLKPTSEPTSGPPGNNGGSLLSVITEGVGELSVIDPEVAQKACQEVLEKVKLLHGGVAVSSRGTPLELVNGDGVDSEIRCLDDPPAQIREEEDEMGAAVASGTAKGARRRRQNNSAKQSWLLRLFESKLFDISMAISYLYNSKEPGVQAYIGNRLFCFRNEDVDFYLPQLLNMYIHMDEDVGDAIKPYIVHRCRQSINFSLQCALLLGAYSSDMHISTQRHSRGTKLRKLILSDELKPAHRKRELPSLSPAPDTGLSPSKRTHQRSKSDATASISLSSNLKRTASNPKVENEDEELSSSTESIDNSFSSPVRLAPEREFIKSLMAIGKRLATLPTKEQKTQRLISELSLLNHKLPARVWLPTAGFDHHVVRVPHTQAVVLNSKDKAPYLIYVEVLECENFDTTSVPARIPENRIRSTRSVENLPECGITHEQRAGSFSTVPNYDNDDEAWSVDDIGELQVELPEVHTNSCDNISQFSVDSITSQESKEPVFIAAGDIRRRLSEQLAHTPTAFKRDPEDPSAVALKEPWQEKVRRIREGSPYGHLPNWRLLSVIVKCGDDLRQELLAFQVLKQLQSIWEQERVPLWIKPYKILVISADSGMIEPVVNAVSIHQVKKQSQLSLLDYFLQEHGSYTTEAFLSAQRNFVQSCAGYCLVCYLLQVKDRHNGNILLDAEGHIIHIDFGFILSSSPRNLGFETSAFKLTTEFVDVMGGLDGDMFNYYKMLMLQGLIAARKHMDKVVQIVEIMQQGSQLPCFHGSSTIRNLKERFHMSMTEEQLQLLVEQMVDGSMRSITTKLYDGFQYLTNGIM
T9 sequence (Q9Y2I7 whole entry): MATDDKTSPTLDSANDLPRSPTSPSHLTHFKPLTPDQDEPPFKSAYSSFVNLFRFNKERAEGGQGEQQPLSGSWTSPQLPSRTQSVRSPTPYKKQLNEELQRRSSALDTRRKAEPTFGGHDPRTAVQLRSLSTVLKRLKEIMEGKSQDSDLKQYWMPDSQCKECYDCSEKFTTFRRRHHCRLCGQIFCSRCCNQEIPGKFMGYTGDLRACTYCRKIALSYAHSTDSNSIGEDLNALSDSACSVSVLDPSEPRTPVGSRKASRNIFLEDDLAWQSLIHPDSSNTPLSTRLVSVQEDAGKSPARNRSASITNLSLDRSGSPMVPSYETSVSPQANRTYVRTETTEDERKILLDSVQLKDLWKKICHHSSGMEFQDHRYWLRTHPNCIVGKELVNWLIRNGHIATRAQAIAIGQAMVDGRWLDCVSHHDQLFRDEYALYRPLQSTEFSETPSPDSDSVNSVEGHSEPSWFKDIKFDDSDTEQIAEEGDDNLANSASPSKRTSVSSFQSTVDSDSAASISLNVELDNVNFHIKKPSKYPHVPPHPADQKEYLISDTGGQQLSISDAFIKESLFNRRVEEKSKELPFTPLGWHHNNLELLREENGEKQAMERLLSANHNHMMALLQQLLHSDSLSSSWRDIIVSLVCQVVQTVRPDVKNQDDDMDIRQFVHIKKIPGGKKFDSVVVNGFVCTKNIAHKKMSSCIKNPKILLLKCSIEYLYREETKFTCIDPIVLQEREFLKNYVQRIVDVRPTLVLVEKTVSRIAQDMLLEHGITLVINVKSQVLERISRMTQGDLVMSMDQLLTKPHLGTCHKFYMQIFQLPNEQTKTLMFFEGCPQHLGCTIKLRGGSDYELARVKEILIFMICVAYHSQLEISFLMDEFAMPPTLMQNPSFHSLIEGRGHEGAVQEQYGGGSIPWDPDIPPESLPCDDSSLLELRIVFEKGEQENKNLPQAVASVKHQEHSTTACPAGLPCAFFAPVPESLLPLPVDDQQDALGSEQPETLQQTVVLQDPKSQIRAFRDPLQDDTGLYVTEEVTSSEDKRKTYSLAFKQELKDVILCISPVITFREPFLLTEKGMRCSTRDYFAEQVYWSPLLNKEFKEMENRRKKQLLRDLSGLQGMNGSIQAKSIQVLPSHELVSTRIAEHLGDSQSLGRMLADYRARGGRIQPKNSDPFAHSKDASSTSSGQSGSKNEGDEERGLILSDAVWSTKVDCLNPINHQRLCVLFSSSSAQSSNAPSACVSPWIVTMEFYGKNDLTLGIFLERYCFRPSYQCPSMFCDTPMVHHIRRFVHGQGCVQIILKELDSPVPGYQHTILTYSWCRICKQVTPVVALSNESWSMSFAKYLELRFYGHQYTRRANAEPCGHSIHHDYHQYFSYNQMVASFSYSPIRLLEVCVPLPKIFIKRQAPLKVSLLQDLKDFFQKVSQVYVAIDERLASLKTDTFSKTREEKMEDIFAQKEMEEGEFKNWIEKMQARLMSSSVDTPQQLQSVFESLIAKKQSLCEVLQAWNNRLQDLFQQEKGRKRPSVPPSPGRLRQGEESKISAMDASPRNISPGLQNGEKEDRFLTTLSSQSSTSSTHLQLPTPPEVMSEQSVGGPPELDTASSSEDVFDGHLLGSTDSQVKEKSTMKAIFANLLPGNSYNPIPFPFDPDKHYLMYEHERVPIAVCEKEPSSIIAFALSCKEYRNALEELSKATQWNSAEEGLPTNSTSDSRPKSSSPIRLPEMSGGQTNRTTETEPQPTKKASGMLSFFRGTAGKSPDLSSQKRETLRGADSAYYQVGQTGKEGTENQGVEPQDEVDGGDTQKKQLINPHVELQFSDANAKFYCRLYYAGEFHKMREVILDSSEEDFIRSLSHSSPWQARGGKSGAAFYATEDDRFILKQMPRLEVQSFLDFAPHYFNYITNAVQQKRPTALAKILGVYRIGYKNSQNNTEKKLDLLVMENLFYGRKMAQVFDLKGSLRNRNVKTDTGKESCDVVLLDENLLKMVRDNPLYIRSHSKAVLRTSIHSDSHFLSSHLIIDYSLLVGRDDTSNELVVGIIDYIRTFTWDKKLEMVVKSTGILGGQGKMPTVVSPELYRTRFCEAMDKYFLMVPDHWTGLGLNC
T4 sequence (P48736 whole entry): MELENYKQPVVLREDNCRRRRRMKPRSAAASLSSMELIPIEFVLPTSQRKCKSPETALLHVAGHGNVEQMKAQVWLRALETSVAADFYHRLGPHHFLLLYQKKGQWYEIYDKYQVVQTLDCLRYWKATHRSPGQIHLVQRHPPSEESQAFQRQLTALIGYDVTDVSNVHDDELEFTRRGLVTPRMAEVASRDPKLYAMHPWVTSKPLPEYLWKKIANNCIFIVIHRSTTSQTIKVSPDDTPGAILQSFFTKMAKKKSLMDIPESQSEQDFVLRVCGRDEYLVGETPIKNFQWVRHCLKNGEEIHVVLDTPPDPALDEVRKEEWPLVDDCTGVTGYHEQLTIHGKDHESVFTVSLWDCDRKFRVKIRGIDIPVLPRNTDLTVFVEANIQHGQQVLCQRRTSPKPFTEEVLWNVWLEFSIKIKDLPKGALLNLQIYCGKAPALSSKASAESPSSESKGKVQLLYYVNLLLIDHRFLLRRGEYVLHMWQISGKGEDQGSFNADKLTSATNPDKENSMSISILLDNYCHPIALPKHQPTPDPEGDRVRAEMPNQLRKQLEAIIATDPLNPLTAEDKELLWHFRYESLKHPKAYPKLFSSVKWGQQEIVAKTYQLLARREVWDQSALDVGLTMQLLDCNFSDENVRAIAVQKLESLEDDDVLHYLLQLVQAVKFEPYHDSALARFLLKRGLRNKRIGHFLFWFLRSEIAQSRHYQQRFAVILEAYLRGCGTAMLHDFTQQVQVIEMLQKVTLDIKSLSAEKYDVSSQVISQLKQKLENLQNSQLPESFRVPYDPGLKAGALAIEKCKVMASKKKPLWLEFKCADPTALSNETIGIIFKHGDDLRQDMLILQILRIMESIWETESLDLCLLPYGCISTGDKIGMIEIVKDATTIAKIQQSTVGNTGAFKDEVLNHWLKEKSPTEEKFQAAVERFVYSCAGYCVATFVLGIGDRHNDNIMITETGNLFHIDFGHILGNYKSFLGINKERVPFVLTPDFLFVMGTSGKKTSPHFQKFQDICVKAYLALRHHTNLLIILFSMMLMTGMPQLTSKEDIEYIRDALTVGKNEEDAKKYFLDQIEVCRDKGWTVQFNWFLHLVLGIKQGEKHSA

Row | SMILES | inhibition at 100 µM (PI5P4Kβ) | remaining activity at 1 µM (PRAK) | remaining activity at 1 µM (JNK3) | remaining activity at 1 µM (PIM2) | half-life at 1 µM [1] | % activity remaining (PIK3CA) | % activity remaining (PIK3CA(H1047Y)) | % activity remaining (PIK3CG) | % activity remaining (PIP5K1C) | % activity remaining (PIK3CB) | % activity remaining (PIK3CA(E542K)) | % activity remaining (PIK3CA(E545A)) | % activity remaining (PIKFYVE) | % activity remaining (PIP5K2C (PI5P4KC)) | % activity remaining (PIK4CB) | % activity remaining (PIK3C2G) | % activity remaining (PIK3CD) | % activity remaining (PIK3CA(C420R)) | % activity remaining (VPS34)
1 | COc1ccc(Nc2ncnc3c2ccn3-c2ccc(C)c(C)c2)cc1Cl [compound 36] | 4% | 90% | 89% | 97% | 11 min |  |  |  |  |  |  |  |  |  |  |  |  |  | 
2 | CC1(C)CN(c2ncc(C(=O)Nc3cccc(C(F)(F)F)c3)c(N)n2)C(=O)N1 [compound 7, Imanixil] |  |  |  |  |  | 100% | 95% | 100% | 100% | 100% | 100% | 100% | 100% | 100% | 98% | 100% | 100% | 100% | 100%

— paper PMC10211317, “Identification of ARUK2002821 as an isoform-selective PI5P4Kα inhibitor” (RSC Medicinal Chemistry, 2023)
